Source: patent US7160992B2, “Amino-modified polysaccharides and methods of generating and using same” (Yeda Research and Development Co., Ltd., priority 2003, dated 2007)
Where “and” joins values, the source holds several entries; their conditions need not be identical. Identical values can stand only once.

Experiments:
CXCR4 = target: T1, CXCR4 (Homo sapiens, UniProt P61073); test: Inhibition of anti-CXCR4 mAb 12G5 binding to cells, flow cytometry; format: cell-based; conditions: for reduction of 12G5 mAb binding to the cells: 10 μM AAC, PM1 cells, 30 min at 4° C.; for inhibition of mAb 12G5 or SDF-1α binding to CXCR4, % of the NeoR6 activity: in comparison to NeoR6
T1 construct: endogenous in cells; host or cells: PM1 cells and PBMC
T1 sequence (P61073 whole entry): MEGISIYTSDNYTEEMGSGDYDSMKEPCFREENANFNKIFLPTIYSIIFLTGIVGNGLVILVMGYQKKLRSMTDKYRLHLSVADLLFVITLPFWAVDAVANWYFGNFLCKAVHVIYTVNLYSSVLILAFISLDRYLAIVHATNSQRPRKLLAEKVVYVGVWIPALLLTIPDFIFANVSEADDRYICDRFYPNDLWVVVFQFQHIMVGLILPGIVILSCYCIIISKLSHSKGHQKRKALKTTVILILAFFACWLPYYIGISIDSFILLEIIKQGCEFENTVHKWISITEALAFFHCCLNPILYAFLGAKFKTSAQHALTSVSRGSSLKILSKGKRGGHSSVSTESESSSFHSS
Experimental: FIGS. 11a–d are graphs depicting the binding of AACs to CXCR4 in the presence of anti CXCR4 antibody (12G5). PM1 cells were incubated with PE-conjugated isotype control mAb, PE-anti CXCR4 conjugated mAb (12G5) alone, or in the presence of the indicated AACs for 30 min at 4° C. The cells were then washed twice with PBS and analyzed by flow cytometry. The MFI values are shown in parenthesis.
Interaction of AACs with CXCR4 was determined by flow cytometry (FACScan, Becton Dickinson) as described recently (Litovchick et al., 2001, supra). Briefly, 0.5×10^6 cells were washed in ice-cold PBS containing 0.1% sodium azide (wash buffer) and incubated at 4° C. with anti-CXCR4 mAb, 12G5 (PharMingen, San Diego, Calif.) conjugated to phycoerithrine (PE), in the absence or presence of different concentrations of the AACs. After 30 min of incubation, the cells were washed with ice-cold wash buffer and fixed in PBS containing 1% paraformaldehyde. Non-specific fluorescence was assessed by using isotype-matched control. For each sample 10,000 events were acquired. Data were analyzed and processed using CellQuest™ software (Becton Dickinson).

MT-2 cells = test: Cellular uptake competition of AACs with NeoR6-FITC, flow cytometry; format: cell-based; conditions: for competition with NeoR6-FITC uptake (in words): 100 fold excess of non-labeled AAC
Experimental: Following 15 minutes of incubation at room temperature, the cells were washed twice with ice-cold PBS and fixed in PBS containing 1% paraformaldehyde. Fluorescence was analyzed using flow cytometry.
After 5 or 15 min of incubation at room temperature, the cells were washed twice with ice-cold PBS and fixed in PBS containing 1% paraformaldehyde. The fluorescence was then analyzed by flow cytometry (FACScan, Becton Dickinson Imunocytometry Systems, San Jose, Calif., USA). For each sample 10,000 events were acquired. Data were analyzed and processed.

RRE IIB RNA = test: Fluorescence anisotropy: RhdRev binding and AAC competition for RRE IIB RNA; parameters: species or system HIV-1; conditions: for Kd: competition of AACs with RhdRev (10 nM) for RRE IIB RNA (20 nM) binding, 85 mM NaCl; for IC50: competition of AACs with RhdRev for RRE IIB RNA binding
TAR RNA = test: Fluorescence anisotropy: RhdRev binding and AAC competition for TAR RNA; parameters: species or system HIV-1; conditions: for Kd: competition of AACs with RhdRev (10 nM) for TAR RNA (20 nM) binding, 85 mM NaCl; for IC50: competition of AACs with RhdRev for TAR RNA binding
CCR5 = target: T2, CCR5 (Homo sapiens, UniProt P51681); conditions: PHA stimulated peripheral blood lymphocytes; cited from earlier work
T2 construct: in PHA stimulated peripheral blood lymphocytes (PBL); host or cells: PHA stimulated peripheral blood lymphocytes (PBL)
T2 sequence (P51681 whole entry): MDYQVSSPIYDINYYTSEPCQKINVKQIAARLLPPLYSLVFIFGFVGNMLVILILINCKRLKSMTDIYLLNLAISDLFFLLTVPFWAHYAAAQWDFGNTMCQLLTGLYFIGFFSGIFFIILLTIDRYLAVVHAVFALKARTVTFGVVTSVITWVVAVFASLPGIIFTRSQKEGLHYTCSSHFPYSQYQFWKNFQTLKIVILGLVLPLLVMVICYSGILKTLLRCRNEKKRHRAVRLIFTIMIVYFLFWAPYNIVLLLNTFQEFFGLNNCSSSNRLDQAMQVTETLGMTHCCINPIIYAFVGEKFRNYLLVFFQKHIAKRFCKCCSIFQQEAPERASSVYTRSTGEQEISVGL

[1] = system: lymphocytes, PBMC and neurons; conditions: cited from earlier work
CD4 = target: T3, CD4 (Homo sapiens, UniProt P01730); conditions: PHA stimulated peripheral blood lymphocytes; cited from earlier work
T3 construct: in PHA stimulated peripheral blood lymphocytes (PBL); host or cells: PHA stimulated peripheral blood lymphocytes (PBL)

[2] = system: U38, PM1, H9 cells and PBMC; test: Cellular uptake of AAC-FITC fluorescent probes, fluorescence microscopy; format: cell-based; conditions: 0.5 μM, 10 minutes of incubation
Experimental: Images were obtained using a Zeiss Axiophot microscope.
Cellular uptake using AAC fluorescent probes—U38, PM1, H9 cells and PBMC(10^5) were incubated for 20 minutes at room temperature in 100 μl RPMI 1640 medium (Gibco-BRL, Life-Technologies, UK) including AAC-FITC derivatives as indicated at a final concentration of 0.5 μM. Cells were washed twice, resuspended in 100 μl medium and analyzed with a Zeiss Axiophot fluorescent microscope.

PM1 cells = test: Inhibition of FITC-labeled AAC uptake by SDF-1α, flow cytometry; format: cell-based; conditions: for MFI of FITC-AAC uptake: background MFI of 10
Experimental: Following 20 minutes at room temperature the cells were washed twice with PBS and analyzed by flow cytometry.
Following 30 minutes of incubation, cells were washed with ice-cold wash buffer and analyzed by flow cytometry as described above.

cMAGI cells = test: Competition between FITC-labelled AACs and RANTES; format: cell-based; conditions: 2.5 mM RANTES
Experimental: Competition between FITC labelled AACs (1 mM) and RANTES (2.5 mM, Pepro Tech Inc., New Jersey, USA) was effected in 2×10^5 cMAGI cells. Following 30 min of incubation, cells were washed with ice-cold wash buffer and analysed by flow cytometry as described above.

HIV-1 isolates = test: Inhibition of HIV-1 infection (cMAGI reporter cells, MT2 syncytium formation); format: cell-based; conditions: up to 100 μM
Experimental: Aliquots of cell-free culture supernatants were used as viral inoculum. […] Cytotoxicity determinations were carried out in MT2 and H9 cells by trypan blue exclusion assay.
Viral inhibition was determined by incubating cMAGI HIV-1 reporter cells with 0.2–0.5 multiplicity of infection of HIV-1IIIB for 4 days at 37° C. in the presence or absence of various concentration of AACs, prior to counting the number of HIV-1 infected cells (stained blue). The cytopathic effects of the viral infection of MT2 cells were also analyzed by microscopic assessment of syncytium formation. These latter data were obtained by analysis of duplicate samples by two independent observers.

Row | Compound | reduction of 12G5 mAb binding to the cells (CXCR4) [%] | inhibition of mAb 12G5 or SDF-1α binding to CXCR4, % of the NeoR6 activity (CXCR4) [%] | competition with NeoR6-FITC uptake (in words) (MT-2 cells) | Kd (RRE IIB RNA) | IC50 (RRE IIB RNA) [nM] | Kd (TAR RNA) | IC50 (TAR RNA) [nM] | antiviral activity (in words) (HIV-1 isolates) | also measured
1 | argininamido-neomycin B conjugate [NeoR1] | 50 | 55 | did not compete | 200 ± 5.9 nM | 353 ± 31.9 | > 500 nM | > 500 | – | –
2 | NC(N)=NCCC[C@H](N)C(=O)NC[C@H]1O[C@H](O[C@H]2C(O)[C@@H](O[C@H]3O[C@H](CO)[C@@H](O)[C@H](NC(=O)[C@@H](N)CCCN=C(N)N)[C@H]3O)[C@H](NC(=O)[C@@H](N)CCCN=C(N)N)C[C@@H]2NC(=O)[C@@H](N)CCCN=C(N)N)[C@H](O)[C@@H](O)[C@@H]1O (stereo partly drawn) [R4K] | – | – | – | – | – | – | – | – | inhibition of binding of 2D7, a mAb directed to CCR5 (CCR5): neither R3G nor R4K or NeoR6 inhibit the binding; accumulation in cells [1]: accumulate in different cell types; inhibition of binding of anti CD4 antibody (Leu 3a) (CD4): neither R3G nor R4K or NeoR6 inhibit the binding
3 | CC(=O)O.N=C(N)NCCCC(N)C(=O)NCC1OC(OC2C(CO)OC(OC3C(O)C(N)CC(N)C3OC3OC(CO)C(O)C(O)C3N)C2O)C(N)C(O)C1O (stereo not drawn) [ParomR1, argininamido-paramomycin conjugate] | 16 | – | did not compete | 254 ± 7.8 nM | 407 ± 41 | > 500 nM | > 500 | – | –
4 | CC(=O)O.N=C(N)NCCCC(N)C(=O)NCC1OC(OC2C(CO)OC(OC3C(O)C(NC(=O)C(N)CCCNC(=N)N)CC(NC(=O)C(N)CCCNC(=N)N)C3OC3OC(CO)C(O)C(O)C3NC(=O)C(N)CCCNC(=N)N)C2O)C(NC(=O)C(N)CCCNC(=N)N)C(O)C1O (stereo not drawn) [ParomR5, pentaargininamido-paromomycin conjugate] | 81 | 90 | – | 96 nM and 95.9 nM | 149 ± 12.3 | 15 nM and 15.1 nM | 34.3 ± 5.7 | – | cellular uptake of FITC-labeled AAC by PM1 cells [2]: uptaken by PM1 cells; inhibition of NeoR6-FITC uptake, less efficient than NeoR6 (MT-2 cells; 40 fold excess of non-labeled AAC): about 50%; inhibition of NeoR6-FITC uptake, less affinity than NeoR6 (MT-2 cells; 100 fold excess of non-labeled AAC over 0.5 μM NeoR6-FITC): about 50%; MFI of FITC-AAC uptake (PM1 cells; 62.5 nM SDF-1α): 83; inhibition of cell uptake by SDF-1α (PM1 cells; 125 nM SDF-1α, PM1 cells): about 50%; MFI of FITC-AAC uptake (PM1 cells; 125 nM SDF-1α): 59; MFI of FITC-AAC uptake (PM1 cells; 250 nM SDF-1α): 53; MFI of FITC-AAC uptake (PM1 cells; without SDF-1α): 104; effect of RANTES on uptake of FITC derivative (cMAGI cells): did not affect uptake; times weaker than NeoR6, RRE IIB binding (RRE IIB RNA; ratio of KD to that of NeoR6): about 4; competition with RhdRev for TAR RNA binding (in words) (TAR RNA; up to 20 μM of AAC): efficiently competed
5 | gentamicin | – | – | – | – | – | – | – | did not reveal antiviral activity | –
6 | NC[C@H]1O[C@H](O[C@H]2[C@H](O)[C@@H](O)[C@H](N)C[C@@H]2N)[C@H](N)[C@@H](O)[C@@H]1O [neamine, reference compound] | – | – | – | – | – | – | – | did not reveal antiviral activity | inhibition of 12G5 mAb binding to CXCR4 (in words) (CXCR4; 20 μM aminoglycoside antibiotic): did not inhibit
